Test in all cases: DTP human tumour cell line panel, 48 h
Test [1] has as its system COLO 205 colon.
Test [2] deals with HOP-92 NSCLC.
The test system of test [3] is K-562 leukemia.
Test [4] relates to LOX IMVI melanoma.
For test [5], the system named is OVCAR-5 ovarian.
The test system of test [6] is OVCAR-8 ovarian.
In test [7] the test system is RXF 393 renal.
Test [8] deals with SF-295 CNS.
Test [9] concerns SF-539 CNS.
The subject of test [10] is T-47D breast.

Each structure is given as a SMILES string. Where “and” joins values, the source holds several entries; their conditions need not be identical. Equal entries are not always repeated.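 Grown in 96-well plates, cells were treated for 48 hours with each compound at five concentrations. Insufficient inhibition: endpoint recorded as highest concentration tested. GI50 is the concentration that inhibits growth by half. TGI denotes the concentration required for complete inhibition of growth.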 A value given as a limit tells only on which side of the number the result lay.

This note sets out measurements from PubChem BioAssay (NCI).

On to `CC(C)O/N=C/c1cc(NC(=S)OC(C)C)ccc1Cl`, for which the TGI (in general, the concentration at which net growth stops) in test [1] is more than 81.3 µM; in test [2], 99.8 µM; in test [3] it was more than 53.4 µM; in test [4], more than 52.5 µM; in test [5] it was more than 86.1 µM; in [6], more than 90.3 µM. Also, the TGI in [7] was 52.9 µM; in test [8], 62.7 µM; in test [9], more than 78.8 µM; in test [10], more than 100 µM.

As to `Cc1nc(-c2cn3c(n2)-c2ccc(-c4cnn(C(C)(C)C(N)=O)c4)cc2OCC3)n(C(C)C)n1`, the concentration for 50% growth inhibition (GI50) (as a rule, the concentration giving 50% growth inhibition) in [1] is 0.109 µM and 0.203 µM; in test [2], 0.0211 µM and 0.0253 µM; in test [3], 8.86 µM; in [4] it was 0.279 µM and 0.74 µM; in [5], 0.17 µM and 0.976 µM; in [6] it was 3.38 µM and 5.87 µM. Besides, the GI50 is 0.537 µM and 0.727 µM in [7]; 0.894 µM and 0.838 µM in [8]; 0.654 µM and 0.493 µM in [9]; < 0.0384 µM and 0.00372 µM in test [10]. Also, the total growth inhibition concentration (TGI) in test [1] was 16.6 µM and > 10 µM; in test [3], more than 75.7 µM; in test [4] it was 17.7 µM and > 10 µM; in test [5] it was 32.3 µM and > 10 µM; in test [6] it was 75.9 µM and > 10 µM; in [7], 4.61 µM and > 7.26 µM. Further, the concentration for total growth inhibition (TGI) in [8] was 16.7 µM and > 10 µM; in test [9], 6.13 µM and 5.83 µM.

For the compound `O=C1C=CC(=Nc2cc(Br)c(O)c(Br)c2)C=C1`, the GI50 is 20 µM in test [1]; 39.6 µM in test [2]; 5.83 µM in [3]; 21.6 µM in test [4]; 24.4 µM in [5]; 14.9 µM in test [6]. Besides, the GI50 in test [7] was 12.5 µM; in test [8], 27 µM; in test [9], 21.5 µM; in test [10], 12.4 µM. The total growth inhibition concentration (TGI) was 52 µM in [1]; more than 100 µM in test [2]; more than 100 µM in test [3]; 66.6 µM in test [4]; 60.5 µM in [5]; more than 100 µM in test [6]. The TGI is 63.8 µM in [7], 96.2 µM in test [8], 64.1 µM in test [9] and 41.4 µM in [10].

As for `Cc1nnc(-c2cccc(-c3ccc(C(=O)NCC4CC4)cc3)c2)o1`, the GI50 in [1], in test [2], in test [3], in [4], in test [5] and in [6] was more than 25 µM each time. Moreover, the GI50 in [7] is more than 25 µM; in [8] it was more than 25 µM; in [9], more than 25 µM; in test [10], more than 16.9 µM. The total growth inhibition concentration (TGI) in [1], in test [2], in test [3], in test [4], in [5] and in test [6] was more than 25 µM in each case. Besides, the total growth inhibition concentration (TGI) in test [7], in test [8], in test [9] and in [10] was more than 25 µM in each case.

For the compound `Cc1nc2ccccc2c(/C=C/c2ccc(Cl)cc2)c1C(=O)/C=C/c1ccc(C(F)(F)F)cc1`, the GI50 in test [1] was 1.32 µM; in [2], 1.07 µM; in test [3] it was 0.31 µM; in test [4], 0.181 µM; in test [5], 0.821 µM; in [6], 0.433 µM. Also, the 50% growth inhibitory concentration (GI50) in test [7] was 0.322 µM; in test [8], 1.47 µM; in test [9] it was 0.24 µM; in test [10], 0.299 µM. For the same compound, the TGI in test [1] is 3.25 µM; in test [2] it was 2.47 µM; in [3], more than 100 µM; in test [4], 0.361 µM; in test [5], 2.84 µM; in test [6], 2.2 µM. Moreover, the concentration for total growth inhibition (TGI) came to 0.988 µM in test [7], 2.79 µM in test [8], 0.636 µM in test [9] and 1.46 µM in [10].

Regarding `Cn1cnc([N+](=O)[O-])c1Sc1nc(N)nc2c1ncn2C1CC(O)C(CO)O1` (stereo not drawn), the total growth inhibition concentration (TGI) was more than 34.3 µM in [1]; more than 100 µM in test [2]; more than 100 µM in [3]; more than 100 µM in [4]; more than 100 µM in [5]; more than 100 µM in [6]. Also, the concentration for total growth inhibition (TGI) in test [7] is more than 100 µM; in [8], more than 100 µM; in test [9], more than 100 µM; in [10] it was more than 63.9 µM.

With `[N-]=[N+]=NCCCCCC(=O)OC(C(=O)c1ccccc1)c1cccc(OCC(=O)NCCOCCOCCNC(=O)CCCC[C@@H]2SC[C@@H]3NC(=O)N[C@@H]32)c1` (stereo partly drawn), the GI50 in test [1] was more than 100 µM; in [2] it was 34.9 µM; in [3] it was 62.9 µM; in test [4], 18.5 µM; in test [5], more than 100 µM; in test [6], more than 100 µM. Further, the GI50 in test [7] was 56.3 µM; in [8], more than 100 µM; in [9], 25.3 µM; in [10] it was 60.7 µM. Besides, the total growth inhibition concentration (TGI) in [1] is more than 100 µM; in [2], more than 100 µM; in [3] it was more than 100 µM; in [4], 44.5 µM; in [5], more than 100 µM; in test [6], more than 100 µM. The TGI was more than 100 µM in test [7], more than 100 µM in [8], 72.7 µM in test [9] and more than 100 µM in test [10].

As for `O=C(Cc1ccc(F)c(F)c1)Nc1cc(C2(C(F)(F)F)CC2)nn1Cc1ccccc1`, the GI50 was 2.7 µM in test [1]; 2.32 µM in [2]; 5.01 µM in test [3]; 4.9 µM in test [4]; 4 µM in [5]; 5.06 µM in [6]. Also, the GI50 in [7] was 2.65 µM; in test [8] it was 3.77 µM; in [9], 4.33 µM; in test [10] it was 2.96 µM. In addition, the concentration for total growth inhibition (TGI) in test [1] is 6.34 µM; in test [2] it was 8.75 µM; in test [3], more than 15 µM; in test [4], more than 15 µM; in test [5] it was more than 15 µM; in [6], more than 15 µM. For the same compound, the concentration for total growth inhibition (TGI) is 12.2 µM in test [7], 14.7 µM in [8], more than 15 µM in test [9] and 13 µM in [10].

`NCC1OC(n2cnc3c(N)ncnc32)CC1O` (stereo not drawn): the TGI in test [1], in test [2], in test [3], in test [4], in test [5] and in [6] was more than 100 µM each time. Besides, the TGI in test [7], in test [8], in [9] and in test [10] was more than 100 µM throughout.

Regarding `COc1cccc(NC(=O)c2sc3nc(C)c(C(O)c4ccccc4)cc3c2N)c1` (stereo not drawn), the GI50 in test [1] is 2.42 µM; in [2], 4.21 µM; in [3] it was 0.117 µM; in test [4], 0.264 µM; in [5], 0.611 µM; in [6], 0.469 µM. Moreover, the GI50 is 0.226 µM in test [7], 0.276 µM in [8], 0.185 µM in test [9] and 0.737 µM in test [10]. For the same compound, the concentration for total growth inhibition (TGI) is 13.6 µM in test [1]; 26.9 µM in test [2]; more than 100 µM in test [3]; 18.6 µM in test [4]; 19.2 µM in test [5]; more than 66.7 µM in test [6]. Moreover, the TGI came to 2.75 µM in [7], 6.82 µM in [8], 0.598 µM in test [9] and 28.4 µM in [10].

On to `Cc1cc(N2CCOCC2)nc(N[C@@H]2CCC[C@H](Nc3ccnc4cc(Cl)ccc34)C2)n1`, for which the GI50 was 1.68 µM in test [1]; 1.44 µM in [2]; 1.21 µM in [3]; 1.71 µM in test [4]; 3.1 µM in test [5]; 2.97 µM in test [6]. The GI50 in test [7] was 1.44 µM; in [8], 1.52 µM; in test [9], 1.61 µM; in test [10] it was 1.68 µM. In addition, the concentration for total growth inhibition (TGI) in test [1] was determined as 3.33 µM; in [2], 3.08 µM; in [3] it was 3.69 µM; in [4] it was 3.3 µM; in test [5], 11.2 µM; in [6], 8.49 µM. Further, the TGI worked out at 3.11 µM in test [7], 2.97 µM in test [8], 3.09 µM in [9] and 3.71 µM in test [10].

As for `COCc1cc(C(=O)Nc2cc([C@H]3CC[C@@H](OC(=O)NC(C)C)C3)[nH]n2)n(C)n1`, the GI50 is 3.15 µM in test [1]; 8.03 µM in [2]; 12.1 µM in [3]; 4.15 µM in test [4]; 7.99 µM in [5]; 10.9 µM in test [6]. In addition, the GI50 is 2.93 µM in [7], 13 µM in test [8], 6.34 µM in test [9] and 9.71 µM in test [10]. Moreover, the concentration for total growth inhibition (TGI) in test [1] is 16.3 µM; in [2], 36.6 µM; in test [3] it was more than 100 µM; in [4] it was 75.5 µM; in test [5] it was more than 100 µM; in test [6], more than 100 µM. Besides, the total growth inhibition concentration (TGI) in test [7] was 9.11 µM; in test [8], more than 100 µM; in test [9], 43.7 µM; in test [10] it was 89 µM.

Take `COc1cc(-c2cc(O)c(-c3ccc4ccccc4n3)c(=O)[nH]2)cc(OC)c1OC`: the total growth inhibition concentration (TGI) was more than 93.2 µM in test [1]; more than 81.6 µM in test [2]; more than 32.1 µM in test [3]; more than 53.8 µM in test [4]; more than 94.2 µM in [5]; more than 54.9 µM in test [6]. Further, the total growth inhibition concentration (TGI) is more than 82.8 µM in test [7], more than 67.7 µM in [8], 74.5 µM in [9] and more than 100 µM in test [10].

`NCCCCCCCn1c2c(c3ccccc3c1=O)C(=O)c1ccccc1-2`: the GI50 in [1] is 2.07 µM; in test [2], 0.808 µM; in test [3] it was 1.31 µM; in [4], 1.33 µM; in test [5] it was 1.7 µM; in test [6], 1.69 µM. Further, the GI50 in test [7] was 1.57 µM; in test [8], 1.74 µM; in test [9] it was 1.66 µM; in test [10], 2.01 µM. Further, the concentration for total growth inhibition (TGI) in [1] came to 5.15 µM; in test [2], 2.44 µM; in [3] it was 2.62 µM; in [4], 2.76 µM; in test [5] it was 3.97 µM; in test [6], 4.82 µM. Also, the concentration for total growth inhibition (TGI) in test [7] stood at 3.39 µM; in [8] it was 4.28 µM; in test [9], 3.09 µM; in test [10], 4.27 µM.
